According to ChEMBL document CHEMBL1156359, “New cytotoxic sesterterpenes from the sponge Sarcotragus species” (2001):
≈ marks a conversion by molar mass, not a printed value.

Experiments:
Type in all cases: functional
Conditions in all cases: read-out: ED50 (the source's name)
SK-MEL-2 = test: Cytotoxicity against human SK-MEL-2 cells
A549 = test: Cytotoxicity against human A549 cells
HCT-15 = test: Cytotoxicity against human HCT15 cells
XF498 = test: Cytotoxicity against human XF498 cells
SK-OV-3 = test: Cytotoxicity against human SKOV3 cells

Row | SMILES | EC50 (SK-MEL-2) [µg/mL] | EC50 (A549) [µg/mL] | EC50 (HCT-15) [µg/mL] | EC50 (XF498) [µg/mL] | EC50 (SK-OV-3) [µg/mL]
1 | CC1=C(O)[C@@H](C/C(C)=C\CCC(C)/C=C/C=C(\C)CCCc2ccoc2)OC1=O (stereo not given in full) [SARCOTIN A] | > 30 | 29.7 (≈ 74.5 µM) | 27.2 (≈ 68.2 µM) | 24.8 (≈ 62.3 µM) | 22.1 (≈ 55.4 µM)
2 | CC1=C(O)/C(=C\[C@H](C)CC/C=C(/C)CCCc2coc(Cc3ccoc3)c2)OC1=O [SARCOTIN E] | 8.37 (≈ 20.4 µM) | 3.8 (≈ 9.26 µM) | 7.31 (≈ 17.8 µM) | 5 (≈ 12.2 µM) | 6.24 (≈ 15.2 µM)
3 | CC1=C(O)/C(=C/[C@H](C)CCC/C(C)=C/CCc2coc(Cc3ccoc3)c2)OC1=O [IRCININ 1] | 8.95 (≈ 21.8 µM) | 3.72 (≈ 9.06 µM) | 6.91 (≈ 16.8 µM) | 5.42 (≈ 13.2 µM) | 6.55 (≈ 16 µM)
4 | COc1cccc2c1C(=O)c1c(O)c3c(c(O)c1C2=O)C[C@@](O)(C(=O)CO)C[C@@H]3O[C@H]1C[C@H](N)[C@H](O)[C@H](C)O1 [DOXORUBICIN] | 0.02 (≈ 0.0368 µM) | 0.02 (≈ 0.0368 µM) | 0.04 (≈ 0.0736 µM) | 0.08 (≈ 0.147 µM) | 0.11 (≈ 0.202 µM)
5 | CC1=C(O)[C@@H](C/C(C)=C\CC/C(C)=C/CC/C(C)=C/CCc2ccoc2)OC1=O | 16.3 (≈ 40.9 µM) | 16.9 (≈ 42.4 µM) | 27.5 (≈ 69 µM) | 20.4 (≈ 51.2 µM) | 26.8 (≈ 67.3 µM)
6 | CC1=C(O)/C(=C\[C@H](C)CCC/C(C)=C/CCc2coc(Cc3ccoc3)c2)OC1=O [SARCOTIN D] | 10.2 (≈ 24.8 µM) | 4.98 (≈ 12.1 µM) | 9.82 (≈ 23.9 µM) | 6.52 (≈ 15.9 µM) | 9.39 (≈ 22.9 µM)
7 | CC1=C(O)[C@H](C/C(C)=C\CCC(C)/C=C\C=C(\C)CCCc2ccoc2)OC1=O (stereo not given in full) [SARCOTIN B] | 7.78 (≈ 19.5 µM) | 10.1 (≈ 25.3 µM) | 8.95 (≈ 22.5 µM) | 8.89 (≈ 22.3 µM) | 11.3 (≈ 28.4 µM)
8 | CC1=C(O)/C(=C/[C@H](C)CC/C=C(/C)CCCc2coc(Cc3ccoc3)c2)OC1=O [IRCININ 2] | 5.87 (≈ 14.3 µM) | 3.8 (≈ 9.26 µM) | 4.74 (≈ 11.5 µM) | 3.7 (≈ 9.01 µM) | 5.9 (≈ 14.4 µM)
